Laboratory results: publication PMC5343027, “Crystal Structure of the Chloroplastic Oxoene Reductase ceQORH from Arabidopsis thaliana” (Frontiers in Plant Science, 2017)
One block for each compound: values may come before it.

How the values were obtained:
[1] = target: T1, ceQORH (chloroplast envelope quinone oxidoreductase homolog) (Arabidopsis thaliana, UniProt Q9SV68); experiment: X-ray crystal structure, […] Å, ternary complex with 13-KOTE; assay type: binding
T1 sequence (Q9SV68 1-329): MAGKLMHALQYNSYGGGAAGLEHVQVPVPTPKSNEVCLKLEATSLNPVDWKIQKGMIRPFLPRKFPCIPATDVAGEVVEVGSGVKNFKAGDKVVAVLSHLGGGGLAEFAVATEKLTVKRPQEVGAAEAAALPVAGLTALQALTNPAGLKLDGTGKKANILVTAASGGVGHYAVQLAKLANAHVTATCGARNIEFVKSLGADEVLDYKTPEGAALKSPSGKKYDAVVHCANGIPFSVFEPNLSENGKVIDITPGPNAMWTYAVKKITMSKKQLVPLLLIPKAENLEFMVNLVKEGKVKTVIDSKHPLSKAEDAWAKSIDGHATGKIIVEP

[2] = target: T1, ceQORH (chloroplast envelope quinone oxidoreductase homolog); experiment: enzyme inhibition kinetics ([…] nm) after […] s preincubation, […] trans-1, […] diphenyl-2-propenone; low-quality crystal structure with NADPH not used; assay type: biochemical
[3] = target: T1, ceQORH (chloroplast envelope quinone oxidoreductase homolog); experiment: X-ray crystal structures, […] Å (binary) and […] Å (ternary with NADP+); assay type: binding

SMILES: NC(=O)c1ccc[n+]([C@@H]2O[C@H](COP(=O)(O)OP(=O)(O)OC[C@H]3O[C@@H](n4cnc5c(N)ncnc54)[C@H](OP(=O)(O)O)[C@@H]3O)[C@@H](O)[C@H]2O)c1 [NADP^+]
X-ray crystal structure, 2.81 Å, ternary complex with 13-KOTE [1]: NADP^+ is bound at the interface of the two domains and the nicotinamide ring is in the vicinity of the catalytic site

IC50 [2]: 36 µM
SMILES: CCCCCC(=O)/C=C/C=C\CCCCCCCC(=O)O [13-KODE, 13-oxo-9(Z),11(E)-octadecadienoic acid]

SMILES: CC/C=C\CC(=O)/C=C/C=C/CCCCCCCC(=O)O [13-KOTE, 13-oxo-9(Z), 11(E), 15(Z)-octadecatrienoic acid]
X-ray crystal structures, 2.78 Å (binary) and 2.81 Å (ternary with NADP+) [3]: apo-ceQORH (5A3V), ceQORH-13-KOTE (5A3J), and ceQORH-NADP^+-13-KOTE (5A4D)
